From patent publication US20170190671A1, “BIS(ARYL)CATECHOL DERIVATIVES AS HERBICIDES” (E I DU PONT DE NEMOURS AND COMPANY, priority 2014, published 2017)

How the values were obtained:
Format in all cases: in vivo
[1] = test system: large (Lg) crabgrass (Digitaria sanguinalis); assay: Test A postemergence; settings: 0 to 100 scale
Outline: (§1)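 Compounds in non-phytotoxic solvent with surfactant applied as soil spray preemergence, or postemergence to plants 2-10 cm at one- to two-leaf stage, in loam/sand. After approximately 10 days in greenhouse, injury rated visually versus untreated controls, 0 (no effect) to 100 (complete control).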

[2] = test system: morningglory (Ipomoea spp.); assay: Test A postemergence; settings: 0 to 100 scale
Outline: as §1

[3] = test system: velvetleaf (Abutilon theophrasti); assay: Test A postemergence; settings: 0 to 100 scale
Outline: as §1

[4] = test system: blackgrass (Alopecurus myosuroides); assay: Test D postemergence; settings: scale 0 to 100
Excerpt: (§2) Seeds of plant species selected from bluegrass (annual bluegrass, Poa annua), blackgrass (Alopecurus myosuroides), canarygrass (Phalaris minor), chickweed (common chickweed, Stellaria media), cutleaf geranium (Geranium dissectum), galium (catchweed bedstraw, Galium aparine), downy bromegrass (Bromus tectorum), field poppy (Papaver rhoeas), field violet (Viola arvensis), green foxtail (Setaria viridis), deadnettle (henbit deadnettle, Lamium amplexicaule), Italian ryegrass (Lolium multiflorum), kochia (Kochia scoparia), lambsquarters (Chenopodium album), oilseed rape (Brassica napus), pigweed (Amaranthus retroflexus), chamomile (scentless chamomile, Matricaria inodora), Russian thistle (Salsola kali), speedwell (bird's-eye speedwell, Veronica persica), spring barley (Hordeum vulgare), spring wheat (Triticum aestivum), wild buckwheat (Polygonum convolvulus), wild mustard (Sinapis arvensis), wild oat (Avenafatua), wild radish (Raphanus raphanistrum), windgrass (Apera spica-venti), winter barley (Hordeum vulgare), and winter wheat (Triticum aestivum) were planted into a silt loam soil and treated preemergence with test chemicals formulated in a non-phytotoxic solvent mixture which included a surfactant.
(§3) At the same time, these species were planted in pots containing Redi-Earth® planting medium (Scotts Company, 14111 Scottslawn Road, Marysville, Ohio 43041) comprising spaghnum peat moss, vermiculite, wetting agent and starter nutrients and treated with postemergence applications of the test chemicals formulated in the same manner. Plants ranged in height from 2 to 18 cm (1- to 4-leaf stage). Treated plants and controls were maintained in a controlled growth environment for 14 to 21 days after which time all species were compared to controls and visually evaluated. Plant response ratings, summarized in Table D, are based on a scale of 0 to 100 where 0 is no effect and 100 is complete control. A dash (-) response means no test result.

[5] = test system: canarygrass (Phalaris minor); assay: Test D postemergence; settings: scale 0 to 100
Excerpt: as §2, §3

[6] = test system: chickweed (common chickweed, Stellaria media); assay: Test D postemergence; settings: scale 0 to 100
Excerpt: as §2, §3

[7] = test system: deadnettle (henbit deadnettle, Lamium amplexicaule); assay: Test D postemergence; settings: scale 0 to 100
Excerpt: as §2, §3

[8] = test system: field violet (Viola arvensis); assay: Test D postemergence; settings: scale 0 to 100
Excerpt: as §2, §3

kochia (Kochia scoparia) = assay: Test D postemergence; settings: scale 0 to 100
Excerpt: as §2, §3

[9] = test system: lambsquarters (Chenopodium album); assay: Test D postemergence; settings: scale 0 to 100
Excerpt: as §2, §3

[10] = test system: pigweed (Amaranthus retroflexus); assay: Test D postemergence; settings: scale 0 to 100
Excerpt: as §2, §3

[11] = test system: speedwell (bird's-eye speedwell, Veronica persica); assay: Test D postemergence; settings: scale 0 to 100
Excerpt: as §2, §3

[12] = test system: spring barley (Hordeum vulgare); assay: Test D postemergence; settings: scale 0 to 100
Excerpt: as §2, §3

[13] = test system: spring wheat (Triticum aestivum); assay: Test D postemergence; settings: scale 0 to 100
Excerpt: as §2, §3

[14] = test system: wild buckwheat (Polygonum convolvulus); assay: Test D postemergence; settings: scale 0 to 100
Excerpt: as §2, §3

[15] = test system: wild radish (Raphanus raphanistrum); assay: Test D postemergence; settings: scale 0 to 100
Excerpt: as §2, §3

[16] = test system: winter barley (Hordeum vulgare); assay: Test D postemergence; settings: scale 0 to 100
Excerpt: as §2, §3

N#Cc1cccc(Oc2ncc(Cl)cn2)c1Oc1ncc(Cl)cn1 [Compound 3, 2,3-bis[(5-chloro-2-pyrimidinyl)oxy]benzonitrile]
Plant response rating, Crabgrass, Large ([1]; 125 g ai/ha): 90 | Plant response rating, Crabgrass, Large ([1]; 500 g ai/ha): 90 | Plant response rating, Morningglory ([2]; 125 g ai/ha): 100 | Plant response rating, Morningglory ([2]; 500 g ai/ha): 100 | Plant response rating, Velvetleaf ([3]; 125 g ai/ha): 100 | Plant response rating, Velvetleaf ([3]; 500 g ai/ha): 100 | Plant response rating, Blackgrass ([4]; 16 g ai/ha): 5 | Plant response rating, Blackgrass ([4]; 31 g ai/ha): 10 | Plant response rating, Blackgrass ([4]; 62 g ai/ha): 15 | Plant response rating, Blackgrass ([4]; 125 g ai/ha): 20 | Plant response rating, Canarygrass ([5]; 16 g ai/ha): 5 | Plant response rating, Canarygrass ([5]; 31 g ai/ha): 10 | Plant response rating, Canarygrass ([5]; 62 g ai/ha): 15 | Plant response rating, Canarygrass ([5]; 125 g ai/ha): 20 | Plant response rating, Chickweed ([6]; 16 g ai/ha): 50 | Plant response rating, Chickweed ([6]; 31 g ai/ha): 70 | Plant response rating, Chickweed ([6]; 62 g ai/ha): 80 | Plant response rating, Chickweed ([6]; 125 g ai/ha): 100 | Plant response rating, Deadnettle ([7]; 16 g ai/ha): 60 | Plant response rating, Deadnettle ([7]; 31 g ai/ha): 70 | Plant response rating, Deadnettle ([7]; 62 g ai/ha): 70 | Plant response rating, Deadnettle ([7]; 125 g ai/ha): 80 | Plant response rating, Field Violet ([8]; 16 g ai/ha): 90 | Plant response rating, Field Violet ([8]; 31 g ai/ha): 100 | Plant response rating, Field Violet ([8]; 62 g ai/ha): 100 | Plant response rating, Field Violet ([8]; 125 g ai/ha): 100 | Plant response rating, Kochia (kochia (Kochia scoparia); 16 g ai/ha): 85 | Plant response rating, Kochia (kochia (Kochia scoparia); 31 g ai/ha): 100 | Plant response rating, Kochia (kochia (Kochia scoparia); 62 g ai/ha): 100 | Plant response rating, Kochia (kochia (Kochia scoparia); 125 g ai/ha): 100 | Plant response rating, Lambsquarters ([9]; 16 g ai/ha): 70 | Plant response rating, Lambsquarters ([9]; 31 g ai/ha): 80 | Plant response rating, Lambsquarters ([9]; 62 g ai/ha): 100 | Plant response rating, Lambsquarters ([9]; 125 g ai/ha): 100 | Plant response rating, Pigweed ([10]; 16 g ai/ha): 100 | Plant response rating, Pigweed ([10]; 31 g ai/ha): 100 | Plant response rating, Pigweed ([10]; 62 g ai/ha): 100 | Plant response rating, Pigweed ([10]; 125 g ai/ha): 100 | Plant response rating, Speedwell ([11]; 16 g ai/ha): 85 | Plant response rating, Speedwell ([11]; 31 g ai/ha): 85 | Plant response rating, Speedwell ([11]; 62 g ai/ha): 100 | Plant response rating, Speedwell ([11]; 125 g ai/ha): 100 | Plant response rating, Barley, Spring ([12]; 16 g ai/ha): 5 | Plant response rating, Barley, Spring ([12]; 31 g ai/ha): 10 | Plant response rating, Barley, Spring ([12]; 62 g ai/ha): 15 | Plant response rating, Barley, Spring ([12]; 125 g ai/ha): 20 | Plant response rating, Wheat, Spring ([13]; 16 g ai/ha): 0 | Plant response rating, Wheat, Spring ([13]; 31 g ai/ha): 0 | Plant response rating, Wheat, Spring ([13]; 62 g ai/ha): 5 | Plant response rating, Wheat, Spring ([13]; 125 g ai/ha): 15 | Plant response rating, Buckwheat, Wild ([14]; 16 g ai/ha): 85 | Plant response rating, Buckwheat, Wild ([14]; 31 g ai/ha): 90 | Plant response rating, Buckwheat, Wild ([14]; 62 g ai/ha): 95 | Plant response rating, Buckwheat, Wild ([14]; 125 g ai/ha): 100 | Plant response rating, Radish, Wild ([15]; 16 g ai/ha): 50 | Plant response rating, Radish, Wild ([15]; 31 g ai/ha): 60 | Plant response rating, Radish, Wild ([15]; 62 g ai/ha): 75 | Plant response rating, Radish, Wild ([15]; 125 g ai/ha): 85 | Plant response rating, Barley, Winter ([16]; 16 g ai/ha): 0 | Plant response rating, Barley, Winter ([16]; 31 g ai/ha): 5 | Plant response rating, Barley, Winter ([16]; 62 g ai/ha): 10 | Plant response rating, Barley, Winter ([16]; 125 g ai/ha): 15
